pIC50: −log10 of the molar value. Like-named read-outs stand apart in the source and are kept apart here.
Experiments:
[1] = target: T1, biotinylated Avi-POLΘ[2-894] (Homo sapiens, UniProt O75417); experiment: ATPase assay (ADP-Glo): POLΘ-mediated ATP hydrolysis; details: read-out: Biochemical ATPase ADPGlo IC50
T1 construct: 1 nM biotinylated Avi-POLΘ[2-894]

DLD1 BRCA2 (−/−) cells = experiment: DLD1 viability assay (CellTiter-Glo, 7 days), DLD1 BRCA2 (−/−); format: cell-based; details: read-out: Viability IC50 (μM) DLD1 BRCA2 null
DLD1 WT cells = experiment: DLD1 viability assay (CellTiter-Glo, 7 days), DLD1 WT; format: cell-based

T1 sequence (O75417 2-894 limits assumed): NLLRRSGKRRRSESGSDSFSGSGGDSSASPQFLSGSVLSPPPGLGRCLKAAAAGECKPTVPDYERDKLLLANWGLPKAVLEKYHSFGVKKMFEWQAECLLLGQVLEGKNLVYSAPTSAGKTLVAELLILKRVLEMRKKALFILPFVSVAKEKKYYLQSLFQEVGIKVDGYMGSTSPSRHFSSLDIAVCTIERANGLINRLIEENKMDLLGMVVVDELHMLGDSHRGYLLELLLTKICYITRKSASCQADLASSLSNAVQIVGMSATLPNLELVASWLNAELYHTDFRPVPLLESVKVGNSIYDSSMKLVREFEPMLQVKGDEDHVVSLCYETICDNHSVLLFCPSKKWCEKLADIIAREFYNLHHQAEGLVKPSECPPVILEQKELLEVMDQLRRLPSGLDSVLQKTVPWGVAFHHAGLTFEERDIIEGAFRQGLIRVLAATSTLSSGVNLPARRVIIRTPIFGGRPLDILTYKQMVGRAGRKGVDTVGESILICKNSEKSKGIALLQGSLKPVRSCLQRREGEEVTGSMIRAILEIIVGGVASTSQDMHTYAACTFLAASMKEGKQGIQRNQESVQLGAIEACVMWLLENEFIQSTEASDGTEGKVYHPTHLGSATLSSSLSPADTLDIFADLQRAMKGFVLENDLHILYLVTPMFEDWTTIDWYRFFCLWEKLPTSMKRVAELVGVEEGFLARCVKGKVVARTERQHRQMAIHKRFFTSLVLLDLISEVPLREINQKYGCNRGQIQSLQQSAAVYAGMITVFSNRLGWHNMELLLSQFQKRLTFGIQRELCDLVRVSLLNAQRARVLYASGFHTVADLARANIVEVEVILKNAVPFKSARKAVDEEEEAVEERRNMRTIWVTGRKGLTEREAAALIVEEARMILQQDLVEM

SMILES | pIC50 [1] | IC50 (DLD1 BRCA2 (−/−) cells; Homo sapiens, DLD-1, 168 h) | IC50 (DLD1 WT cells; Homo sapiens, DLD-1, 168 h) | IC50 (DLD1 BRCA2 (−/−) cells) | IC50 (DLD1 WT cells)
COc1cnc(Cl)cc1-c1cc(C)ncc1C(=O)Nc1nn2cc(C(=O)N[C@@H]3CCCC[C@@H]3O)nc2s1 [Example 22] | 7.82 to 9.00 |  |  | > 2 µM | > 10 µM
COc1cnc(Cl)cc1-c1cc(C)ncc1C(=O)Nc1nn2cc(C(=O)NC3CCC3)nc2s1 (racemic) [Example 288] | 7.82 to 9.00 | 0.25 to 0.5 µM | > 10 µM |  | 
COc1cnc(Cl)cc1-c1cc(C)ncc1C(=O)Nc1nn2cc(C(=O)N[C@H]3CCOC3)nc2s1 [Example 291, (S)-2-(2′-chloro-5′-methoxy-6-methyl-[4,4′-bipyridine]-3-carboxamido)-N-(tetrahydrofuran-3-yl)imidazo[2,1-b][1,3,4]thiadiazole-6-carboxamide] | 7.82 to 9.00 | > 2 µM | > 10 µM |  | 
COc1ccccc1-c1cc(C)ncc1C(=O)Nc1nc2ccc(-c3ccccn3)cc2s1 [Example 121, 4-(2-methoxyphenyl)-6-methyl-N-(6-(pyridin-2-yl)benzo[d]thiazol-2-yl)nicotinamide] | 6.82 to 7.30 | 0.5 to 2 µM | 0.001 to 2.5 µM |  | 
COc1ccccc1-c1cc(C)ncc1C(=O)Nc1nc2ncc(-c3ccnc(C)c3)cc2s1 [Example 87] | 7.82 to 9.00 | 0.25 to 0.5 µM | > 10 µM |  | 
COc1cnc(Cl)cc1-c1cc(C)ncc1C(=O)Nc1nn2cc(C(=O)N[C@H]3CC[C@H](O)C3)nc2s1 [Example 21] | 7.82 to 9.00 |  |  | 0.5 to 2 µM | > 10 µM
COc1cnc(Cl)cc1-c1cc(C)ncc1C(=O)Nc1nn2cc(C(=O)N[C@H]3CCCC[C@@H]3O)nc2s1 (racemic) [Example 281] | 7.82 to 9.00 | > 2 µM | > 10 µM |  | 

Further lines, with some results ahead:

pIC50 [1] | IC50 (DLD1 BRCA2 (−/−) cells; Homo sapiens, DLD-1, 168 h) | IC50 (DLD1 WT cells; Homo sapiens, DLD-1, 168 h) | SMILES | IC50 (DLD1 BRCA2 (−/−) cells) | IC50 (DLD1 WT cells)
7.82 to 9.00 | 0.001 to 0.1 µM | > 10 µM | COc1cnc(Cl)cc1-c1cc(C)ncc1C(=O)Nc1nc2ncc([C@H]3CC4CC3C[C@@H]4C#N)nc2s1 (single isomer, unassigned) [Example 361B, 2′-chloro-N-(6-((2S or R,5S or R)-5-cyanobicyclo[2.2.1]heptan-2-yl)thiazolo[4,5-b]pyrazin-2-yl)-5′-methoxy-6-methyl-[4,4′-bipyridine]-3-carboxamide] |  | 
7.82 to 9.00 | 0.001 to 0.1 µM | > 10 µM | COc1cnc(Cl)cc1-c1cc(C)ncc1C(=O)Nc1nc2ncc(C3CC4CC3CC4C#N)nc2s1 (single isomer, unassigned) [Example 361, 2′-chloro-N-(6-(5-cyanobicyclo[2.2.1]heptan-2-yl)thiazolo[4,5-b]pyrazin-2-yl)-5′-methoxy-6-methyl-[4,4′-bipyridine]-3-carboxamide] |  | 
7.82 to 9.00 | 0.001 to 0.1 µM | > 10 µM | COc1cnc(Cl)cc1-c1cc(C)ncc1C(=O)Nc1nc2ncc(N3CCC(CO)CC3)nc2s1 [Example 506, 2′-chloro-N-(6-(4-(hydroxymethyl)piperidin-1-yl)thiazolo[4,5-b]pyrazin-2-yl)-5′-methoxy-6-methyl-[4,4′-bipyridine]-3-carboxamide] |  | 
7.82 to 9.00 | 0.001 to 0.1 µM | > 10 µM | COc1cnc(Cl)cc1-c1cc(C)ncc1C(=O)Nc1nc2ncc([C@@H]3CC[C@@H](CO)C3)nc2s1 (single isomer, unassigned) [Example 498, 2′-chloro-N-(6-((1R or S,3R and S)-3-(hydroxymethyl)cyclopentyl)thiazolo[4,5-b]pyrazin-2-yl)-5′-methoxy-6-methyl-[4,4′-bipyridine]-3-carboxamide] |  | 
7.82 to 9.00 | 0.1 to 0.25 µM | > 10 µM | COc1cnc(Cl)cc1-c1cc(C)ncc1C(=O)Nc1nc2ncc([C@@H]3CC[C@H](CO)C3)nc2s1 [Example 499, 2′-chloro-N-(6-((1R,3S)-3-(hydroxymethyl)cyclopentyl)thiazolo[4,5-b]pyrazin-2-yl)-5′-methoxy-6-methyl-[4,4′-bipyridine]-3-carboxamide] |  | 
7.82 to 9.00 | 0.001 to 0.1 µM | > 10 µM | COc1cnc(Cl)cc1-c1cc(C)ncc1C(=O)Nc1nc2ncc(N3CCC(O)(C(F)F)CC3)nc2s1 [Example 504, 2′-chloro-N-(6-(4-(difluoromethyl)-4-hydroxypiperidin-1-yl)thiazolo[4,5-b]pyrazin-2-yl)-5′-methoxy-6-methyl-[4,4′-bipyridine]-3-carboxamide] |  | 
7.82 to 9.00 | 0.001 to 0.1 µM | > 10 µM | COc1cnc(Cl)cc1-c1cc(C)ncc1C(=O)Nc1nc2ncc([C@@H]3CC4CC3C[C@H]4C#N)nc2s1 (single isomer, unassigned) [Example 361A, 2′-chloro-N-(6-((2R or S,5R or S)-5-cyanobicyclo[2.2.1]heptan-2-yl)thiazolo[4,5-b]pyrazin-2-yl)-5′-methoxy-6-methyl-[4,4′-bipyridine]-3-carboxamide] |  | 
7.82 to 9.00 | 0.001 to 0.1 µM | > 10 µM | COc1cnc(Cl)cc1-c1cc(C)ncc1C(=O)Nc1nc2ncc([C@H]3CC[C@H](C#N)CC3)nc2s1 [Example 454, 2′-chloro-N-(6-((1r,4r)-4-cyanocyclohexyl)thiazolo[4,5-b]pyrazin-2-yl)-5′-methoxy-6-methyl-[4,4′-bipyridine]-3-carboxamide] |  | 
7.82 to 9.00 | 0.001 to 0.1 µM | > 10 µM | COc1cnc(Cl)cc1-c1cc(C)ncc1C(=O)Nc1nc2ncc(C34CCC(C#N)(CC3)CC4)nc2s1 (single isomer, unassigned) [Example 359, 2′-chloro-N-(6-(4-cyanobicyclo[2.2.2]octan-1-yl)thiazolo[4,5-b]pyrazin-2-yl)-5′-methoxy-6-methyl-[4,4′-bipyridine]-3-carboxamide] |  | 
7.82 to 9.00 | 0.001 to 0.1 µM | > 10 µM | COc1cnc(Cl)cc1-c1cc(C)ncc1C(=O)Nc1nc2ncc(N3CCC(OC)CC3)nc2s1 [Example 514, 2′-chloro-5′-methoxy-N-(6-(4-methoxypiperidin-1-yl)thiazolo[4,5-b]pyrazin-2-yl)-6-methyl-[4,4′-bipyridine]-3-carboxamide] |  | 
7.82 to 9.00 | 0.001 to 0.1 µM | > 10 µM | COc1cnc(Cl)cc1-c1cc(C)ncc1C(=O)Nc1nc2ncc(C34CC(C#N)(C3)C4)nc2s1 (single isomer, unassigned) [Example 360, 2′-chloro-N-(6-(3-cyanobicyclo[1.1.1]pentan-1-yl)thiazolo[4,5-b]pyrazin-2-yl)-5′-methoxy-6-methyl-[4,4′-bipyridine]-3-carboxamide] |  | 
